{"source": "paper PMC10820089", "about": "“Comparative Studies on the Photoreactivity, Efficacy, and Safety of Depigmenting Agents” (Pharmaceuticals, 2023)", "key": {"[1]": {"experiment": "ROS assay for photoreactivity (singlet oxygen and superoxide anion generation)", "type": "physicochemical", "conditions": "for ROS assay: superoxide anion (O2^•−) / ROS assay: singlet oxygen (^1O2): 200 µM final concentration, mean ± SEM, n = 2; for ROS assay: superoxide anion (O2^•−): cut-off O2^•− ≥ 20 = photoreactive; for ROS assay: singlet oxygen (^1O2): cut-off ^1O2 ≥ 25 = photoreactive; for Photoreactivity classification from ROS assay: photoreactive if SO ≥ 25 and/or SA ≥ 20", "description": "In addition to light absorption, the generation of reactive species from chemicals following the absorption of UV-visible light is seen as a key determinant for causing direct phototoxic reactions. The ROS assay can be used as an in chemico screening tool for evaluating the photoreactivity of chemicals. […] These depigmenting agents were tested at 200 μM (final concentration) to identify precipitation, coloration, or any other interference in the reaction mixture.\nThe ROS assay was performed as previously described in Aguiar et al. and the OECD ROS assay for photoreactivity protocol. Stock solutions of all substances were prepared at 10 mM in DMSO or 20 mM sodium phosphate buffer (NaPB, pH 7.4) and used within the same day. SO generation was detected by spectrophotometric measurement of RNO bleaching, followed by a decrease in the absorbance of RNO at 440 nm. SA generation was detected by observing the reduction of NBT to NBT^+, the formation of which can be monitored spectrophotometrically at 560 nm. The depigmenting agents were tested at a final concentration of 200 μM. When precipitation was observable (using a microscope) before light exposure, a lower concentration (20 μM) of the depigmenting agents was tested.\nPhotoreactivity of the test substances was evaluated according to the result (mean of triplicate determinations) from the ROS assay: a test substance was classified as a photoreactive substance when an SO value of 25 or more and/or an SA value of 20 or more was measured; in turn, it was considered to be a non-photoreactive substance when values of less than 25 for SO and less than 20 for SA were recorded."}, "[2]": {"target": "tyrosinase", "conditions": "cited from earlier work; for IC50: read-out: IC50 tyrosinase inhibition (literature)"}, "[3]": {"experiment": "Cell viability (PrestoBlue) in B-16V melanocytes", "conditions": "mouse, B-16V melanocytes, IC50 for B-16V cell viability, 48 h treatment, 0–300 µM in DMSO", "description": "(§1) Given that ABT is a glycosylated derivative of hydroquinone, there is a potential for the release of hydroquinone in vivo.\n(§2) B-16V cells (DSMZ ACC-370, Braunschweig, Germany) were cultured in Dulbecco’s Modified Eagle’s Medium (DMEM) containing 3.7 g/L NaHCO3, 1.0 g/L d-glucose, 1 mM sodium pyruvate, and stable glutamine, supplemented with 10% (v/v) heat-inactivated fetal bovine serum (FBS), 50 U/mL penicillin, and 50 μg/mL streptomycin (all reagents from PAN-Biotech GmbH, Aidenbach, Germany). The cells were cultivated at 37 °C in a humidified atmosphere of 95% air and 5% CO2. Subculturing was performed twice a week, when the cells reached 70–80% confluence, through cell trypsinization with 0.25% Trypsin and 1 mM EDTA.4Na (PAN-Biotech GmbH, Aidenbach, Germany).\n(§3) To evaluate cell viability, B-16V cells were seeded at a cell density of 3 × 10^4 cells/mL in 96-well plates and allowed to proliferate for 48 h. […] Then, PrestoBlue® reagent (Invitrogen, Waltham, MA, USA) was added to each well. When entering a living cell, the PrestoBlue® reagent is reduced from resazurin to resorufin, whose fluorescence is proportional to the number of metabolically active cells. Fluorescence was measured at an excitation/emission wavelength of 530/590 nm in an automated microplate reader (Synergy HT, Biotek Instruments Inc., Winooski, VT, USA).\n(§4) GraphPad Prism 9.5.1 was used to fit non-linear regression to the data and calculate the IC50 values of depigmenting compounds for B-16V cell viability."}, "[4]": {"experiment": "UV-visible spectral analysis, molar extinction coefficient (MEC)", "type": "physicochemical", "conditions": "at 290 nm; for Absorbance (10 µg mL^−1): 10 µg mL^−1 in methanol or 20 mM NaPB pH 7.4, 10 mm path length", "from_the_text": "The phototoxic potential of chemicals is related to the photochemical properties of compounds, especially light absorption within the range 290–700 nm and the generation of reactive species following absorption of UV-visible light. […] The studied depigmenting agents contain in their molecular structures π systems (some of them conjugated), phenolic and/or hydroxyl, carbonyl, and amine groups. The absorption peaks observed in the UV-visible spectra can be assigned to π-π* and n-π* electronic transitions.\nAs the wavelength of maximum absorbance obtained for all compounds was below 290 nm, the MEC value for each depigmenting compound was calculated at this wavelength (Table 1).\nUV-visible spectral analysis was conducted as previously described. The depigmenting agents were dissolved in methanol or 20 mM sodium phosphate buffer (NaPB, pH 7.4) at 10 μg/mL (final concentration). The UV-visible absorption spectra were analyzed using a Shimadzu UV-1700 spectrophotometer (Shimadzu Corp., Kyoto, Japan) and UV-transparent quartz cuvettes (Hellma, Müllheim, Germany) with a 10 mm path length. Each spectrum was corrected for solvent-specific baseline absorption. Molar extinction coefficients (MEC) were calculated using the highest absorption peaks between 290 and 700 nm at 10 μM."}, "[5]": {"test_system": "Tyrosinase from Agaricus bisporus", "experiment": "Tyrosinase inhibition assay (L-tyrosine substrate)", "type": "biochemical", "conditions": "for % Inhib (150 µM) of tyrosinase activity: 150 µM compound, n = 3", "description": "Sodium phosphate monobasic monohydrate was obtained from Fluka (Buchs, Switzerland). Sodium phosphate dibasic anhydrous and methanol were obtained from Carlo Erba Reagents (Val-de-Reuil, France). Imidazole, p-nitroso dimethylaniline (RNO), and nitro blue tetrazolium chloride (NBT) were purchased from Alfa Aesar (Ward Hill, MA, USA).\nTyrosinase inhibition assays were carried out as described in Rosa et al.. Briefly, 25 μL of tyrosinase enzyme solution (135 U/mL), 25 μL of ten serial concentrations of the compounds (dissolved in 0.1 M phosphate buffer pH 6.8 containing no more than 2.5% DMSO, yielding final concentrations of 0.3–150 μM), and 100 μL phosphate buffer were mixed in a 96-well plate and incubated at 37 ± 2 °C for 20 min. Then, 50 μL of 1.66 mM of tyrosine solution in 0.1 M phosphate buffer (pH 6.8) were added. Enzyme activity was measured at 490 nm every 10 min for 30 min in a Bio-Rad Model 680 Microplate Reader (Bio-Rad Laboratories, Inc., Hercules, CA, USA). In cases where the samples were very active at the minimum concentration tested, lower concentration ranges were assayed. […] The experiments were conducted in triplicate. For each concentration, enzyme activity was calculated as a percentage of the velocities compared to those of the assay using buffer without any inhibitor. […] The type of inhibition and inhibition parameters of the compounds, i.e., the Km and Vmax, were determined by Lineweaver–Burk plot analysis using various concentrations of L-tyrosine."}, "[6]": {"test_system": "B-16V melanocytes", "experiment": "Cell viability (PrestoBlue) in B-16V melanocytes", "conditions": "48 h treatment, 10–1000 µM in water", "description": "as §1, §2, §3, §4"}, "[7]": {"test_system": "B16 mouse melanoma cells", "conditions": "cited from earlier work"}}, "note": "“And” between values parts separate entries of the source, which are not always exact repeats. Identical values can stand only once. Like-named read-outs stand apart in the source and are kept apart here.", "data": [{"smiles": "CCCCc1ccc(O)cc1O", "note": "[4BR, 4-butylresorcinol]", "values": [{"measurement": "ROS assay: superoxide anion (O2^•−)", "setting": "[1]", "value": "13 ± 1"}, {"measurement": "ROS assay: singlet oxygen (^1O2)", "setting": "[1]", "value": "1 ± 0"}, {"measurement": "Photoreactivity classification from ROS assay", "setting": "[1]", "value": "non-photoreactive"}, {"measurement": "IC50", "setting": "[2]", "value": "21 µM and 13.5 µM"}, {"measurement": "IC50 at 48 h", "setting": "[3]", "value": "97.6 ± 11.6", "unit": "µM"}, {"measurement": "MEC (molar extinction coefficient)", "setting": "[4]", "value": "ε = 3471 L mol^−1 cm^−1"}, {"measurement": "Absorbance (10 µg mL^−1)", "setting": "[4]", "value": 0.2088}, {"measurement": "% Inhib (150 µM) of tyrosinase activity", "setting": "[5]", "value": 100, "unit": "%"}, {"measurement": "Type of tyrosinase inhibition (Lineweaver-Burk plot)", "setting": "[5]; Vmax constant, Km increases with inhibitor concentration", "value": "competitive inhibitor"}]}, {"smiles": "O=C1O[C@H]([C@@H](O)CO)C(O)=C1O", "note": "[AA, ascorbic acid, reference compound]", "values": [{"measurement": "ROS assay: superoxide anion (O2^•−)", "setting": "[1]", "value": 26}, {"measurement": "ROS assay: singlet oxygen (^1O2)", "setting": "[1]", "value": 671}, {"measurement": "Effect on B-16V cell viability", "setting": "[6]", "value": "did not interfere with cell viability"}, {"measurement": "MEC (molar extinction coefficient)", "setting": "[4]", "value": "ε = 2793 L mol^−1 cm^−1"}, {"measurement": "Absorbance (10 µg mL^−1)", "setting": "[4]", "value": 0.1586}, {"measurement": "Prevention of chromophore formation in tyrosinase assay", "setting": "[5]; 150 µM, cannot be interpreted uniquely as tyrosinase inhibition", "value": 58.70, "unit": "%"}]}, {"smiles": "O=C1O[C@H]([C@@H](O)CO)C(O)=C1O[C@H]1O[C@H](CO)[C@@H](O)[C@H](O)[C@H]1O", "note": "[AA-2G, ascorbyl glucoside]", "values": [{"measurement": "ROS assay: superoxide anion (O2^•−)", "setting": "[1]", "value": "1 ± 0"}, {"measurement": "ROS assay: singlet oxygen (^1O2)", "setting": "[1]", "value": "1 ± 1"}, {"measurement": "Photoreactivity classification from ROS assay", "setting": "[1]", "value": "non-photoreactive"}, {"measurement": "MEC (molar extinction coefficient)", "setting": "[4]", "value": "ε = 1025 L mol^−1 cm^−1"}, {"measurement": "Absorbance (10 µg mL^−1)", "setting": "[4]", "value": 0.0303}, {"measurement": "% Inhib (150 µM) of tyrosinase activity", "setting": "[5]", "value": 11.17, "unit": "%"}]}, {"smiles": "OC[C@H]1O[C@H](Oc2ccc(O)cc2)[C@H](O)[C@@H](O)[C@@H]1O", "note": "[ABT, α-arbutin]", "values": [{"measurement": "ROS assay: superoxide anion (O2^•−)", "setting": "[1]", "value": "0 ± 0"}, {"measurement": "ROS assay: singlet oxygen (^1O2)", "setting": "[1]", "value": "19 ± 1"}, {"measurement": "Photoreactivity classification from ROS assay", "setting": "[1]", "value": "cannot be classified as photoreactive"}, {"measurement": "Photoreactivity classification from ROS assay", "setting": "[1]; listed as α-arbutin", "value": "non-photoreactive"}, {"measurement": "Percentage of tyrosinase inhibition (literature)", "setting": "[2]; at 125 µM", "value": "≈ 30%"}, {"measurement": "MEC (molar extinction coefficient)", "setting": "[4]", "value": "ε = 2004 L mol^−1 cm^−1"}, {"measurement": "Absorbance (10 µg mL^−1)", "setting": "[4]", "value": 0.0736}, {"measurement": "% Inhib (150 µM) of tyrosinase activity", "setting": "[5]", "value": 27.04, "unit": "%"}]}, {"smiles": "C=C[C@@](C)(/C=C/c1ccc(O)cc1)CCC=C(C)C", "note": "[BAK, bakuchiol]", "values": [{"measurement": "ROS assay: superoxide anion (O2^•−)", "setting": "[1]", "value": "inconclusive"}, {"measurement": "ROS assay: singlet oxygen (^1O2)", "setting": "[1]", "value": "inconclusive"}, {"measurement": "Solubility / precipitation in ROS assay reaction mixture", "setting": "[1]; DMSO or 20 mM NaPB pH 7.4, reaction mixture for SO and SA, 200 µM, lowest concentration 20 µM", "value": "showed precipitation in the reaction mixture"}, {"measurement": "IC50", "setting": "[2]; at 1 mM of L-tyrosine", "value": "37.2 ± 5.18", "unit": "µM"}, {"measurement": "IC50 at 48 h", "setting": "[3]", "value": "43.4 ± 0.9", "unit": "µM"}, {"measurement": "Absorbance (10 µg mL^−1)", "setting": "[4]", "value": 0.2203}, {"measurement": "% Inhib (150 µM) of tyrosinase activity", "setting": "[5]", "value": 52.59, "unit": "%"}]}, {"smiles": "O=c1cc(CO)occ1O", "note": "[Kojic acid, kojic acid, reference compound]", "values": [{"measurement": "% Inhib (150 µM) of tyrosinase activity", "setting": "[5]", "value": 99.15, "unit": "%"}]}, {"smiles": "NC[C@H]1CC[C@H](C(=O)O)CC1", "note": "[TA, tranexamic acid, reference compound]", "values": [{"measurement": "Effect on B-16V cell viability", "setting": "[6]", "value": "did not interfere with cell viability"}, {"measurement": "MEC (molar extinction coefficient)", "setting": "[4]", "value": "ε = 380 L mol^−1 cm^−1"}, {"measurement": "Absorbance (10 µg mL^−1)", "setting": "[4]", "value": 0.0242}, {"measurement": "% Inhib (150 µM) of tyrosinase activity", "setting": "[5]", "value": 13.20, "unit": "%"}]}, {"smiles": "Oc1ccc(O)cc1", "note": "[hydroquinone]", "values": [{"measurement": "Concentration achieving complete growth inhibition", "setting": "[7]", "value": "1250 to 2500", "unit": "ng/mL"}, {"measurement": "Concentration initiating growth inhibition", "setting": "[7]", "value": 625, "unit": "ng/mL"}]}]}
